According to patent US20190343908A1, “Therapeutic Combination for the Treatment of Cancer” (Nerium Biotechnology Inc., priority 2011, published 2019):

Tests used:
[1] = tested on: 22Rv1 (human prostate cancer); experiment: Methyl-Tetrazolium (MTT) viability assay, 22Rv1; format: cell-based; conditions: for Average absorbance, MTT 24 h / Average absorbance, MTT 48 h / Average absorbance, MTT 72 h: 22Rv1 Run 3
Description: (§1) Three different viability assays were chosen to complement each other and yielded results dependent on concentration and cell line: the Methyl Tetrazolium dye assay, the Sulforhodamine B fluorescent dye assay, and the Crystal Violet dye assay.
The Methyl-Tetrazolium dye assay measures the activity of enzymes in mitochondria. The dye precursor is taken up by cells, where it undergoes reduction to the purple formazan. It measures only the mitochondrial activity and, thus, it is not always a reliable indication of whether the cells themselves are alive or dead, since even a recently dead cell has […] enzyme activity in mitochondria. Intracellular glucose concentration, pH, and time before assay all affect the measurements.
(§2) The Methyl Tetrazolium, Sulforhodamine B, and Crystal Violet assays were used to assess cell viabilities. The incubation times were 24 hours, 48 hours, and 72 hours. The Nerium oleander extract Anvirzel™ (a hot water extract of oleander obtained from Salud Integral, Honduras) was tested in concentrations ranging from 0.01 ng/mL to 10 ng/mL.
(§3) Cells were detached by trypsinization (Trypsin-0.25% EDTA, Invitrogen, 25200-072) during the logarithmic phase of culture growth and plated in 96-well plates (18.000 cells/well) (Corning, Costar 359) in a final volume of 200 μl of medium per well. […] The absorbance was measured after 24 hours, 48 hours, and 72 hours of incubation.
For the Methyl-Tetrazolium assay, the dye (Sigma, M2128; 5 mg/mL, diluted in phosphate-buffered saline) was added to each well and plates were incubated for 3 hours at 37° C. After the end of the incubation period, the medium was discarded and the cells were rinsed with phosphate-buffered saline. Finally, the formazan crystals were dissolved in dimethylsulphoxide (Sigma, D4540).
(§4) The optical density of each plate was measured on a μQuant spectrophotometer and the data were analyzed with Gen5 software (μQuant Biomolecular Spectrophotometer MQX200 and Gen5™ Microplate Data Collection & Analysis software, BioTek® Instruments. Inc, April 2008). Absorbance was measured at 570 nm for all assays and a second wavelength was measured in order to subtract noise. For the Methyl-Tetrazolium assay this second wavelength was 630 nm and for the Sulforhodamine B and Crystal Violet assays it was 690 nm.

[2] = tested on: HCT-116 (colorectal cancer); experiment: Sulforhodamine B viability assay, HCT-116; format: cell-based, human; set-up: key: absorbance (optical density) at 570 nm, second wavelength subtracted; conditions: for Average SRB: HCT-116
Description: as §1
The Sulforhodamine B and Crystal Violet assays provide information about protein and were used to complement the Methyl-Tetrazolium dye assay. […] It is used for the quantification of cellular proteins of cultured cells. The assay using Crystal Violet, a dye that binds electrostatically to proteins and stains DNA, provides a reliable, simple assay for measuring viability of cells.
as §2, §3
For the Sulforhodamine B assay, 96-well plates were fixed by 10% trichloroacetic acid (Fluka, 91228) and were incubated at 4° C. for 1 hour. Afterwards, plates were rinsed with water and cells were stained with 0.4% Sulforhodamine B (Sigma, 341738), dissolved in 1% acetic acid (Carlo Ebra, 401422) for 15 minutes at room temperature (RT). The unbound stain was washed twice with 1% acetic acid. Finally, 10 mM Tris Buffer pH 10.5 (Sigma, T6791) was added to dissolve the dye.
as §4

N.N.[Cl][Pt][Cl] [cisplatin]
MTT 24 h Average ([1]; 22Rv1 Run 1, 0.1 μg/ml CDDP): 0.042 | MTT 48 h Average ([1]; 22Rv1 Run 1, 0.1 μg/ml CDDP): 0.141 | MTT 72 h Average ([1]; 22Rv1 Run 1, 0.1 μg/ml CDDP): 0.168 | MTT 24 h Average ([1]; 22Rv1 Run 1, 1 μg/ml CDDP): 0.013 | MTT 48 h Average ([1]; 22Rv1 Run 1, 1 μg/ml CDDP): 0.013 | MTT 72 h Average ([1]; 22Rv1 Run 1, 1 μg/ml CDDP): 0.015 | MTT 24 h Average ([1]; 22Rv1 Run 1, 10 μg/ml CDDP): 0.033 | MTT 48 h Average ([1]; 22Rv1 Run 1, 10 μg/ml CDDP): 0.013 | MTT 72 h Average ([1]; 22Rv1 Run 1, 10 μg/ml CDDP): 0.01 | MTT 24 h Average ([1]; 22Rv1 Run 1, 100 μg/ml CDDP): 0.011 | MTT 48 h Average ([1]; 22Rv1 Run 1, 100 μg/ml CDDP): 0.008 | MTT 72 h Average ([1]; 22Rv1 Run 1, 100 μg/ml CDDP): 0.009 | MTT 24 h Average ([1]; 22Rv1 Run 2, 0.1 μg/ml CDDP): 0.077 | MTT 48 h Average ([1]; 22Rv1 Run 2, 0.1 μg/ml CDDP): 0.172 | MTT 72 h Average ([1]; 22Rv1 Run 2, 0.1 μg/ml CDDP): 0.29 | MTT 24 h Average ([1]; 22Rv1 Run 2, 1 μg/ml CDDP): 0.011 | MTT 48 h Average ([1]; 22Rv1 Run 2, 1 μg/ml CDDP): 0.014 | MTT 72 h Average ([1]; 22Rv1 Run 2, 1 μg/ml CDDP): 0.016 | MTT 24 h Average ([1]; 22Rv1 Run 2, 10 μg/ml CDDP): 0.019 | MTT 48 h Average ([1]; 22Rv1 Run 2, 10 μg/ml CDDP): 0.016 | MTT 72 h Average ([1]; 22Rv1 Run 2, 10 μg/ml CDDP): 0.013 | MTT 24 h Average ([1]; 22Rv1 Run 2, 100 μg/ml CDDP): 0.009 | MTT 48 h Average ([1]; 22Rv1 Run 2, 100 μg/ml CDDP): 0.008 | MTT 72 h Average ([1]; 22Rv1 Run 2, 100 μg/ml CDDP): 0.008 | Average absorbance, MTT 24 h ([1]; 0.1 μg/ml CDDP): 0.08 | Average absorbance, MTT 48 h ([1]; 0.1 μg/ml CDDP): 0.135 | Average absorbance, MTT 72 h ([1]; 0.1 μg/ml CDDP): 0.128 | Average absorbance, MTT 24 h ([1]; 1 μg/ml CDDP): 0.015 | Average absorbance, MTT 48 h ([1]; 1 μg/ml CDDP): 0.016 | Average absorbance, MTT 72 h ([1]; 1 μg/ml CDDP): 0.015 | Average absorbance, MTT 24 h ([1]; 10 μg/ml CDDP): 0.023 | Average absorbance, MTT 48 h ([1]; 10 μg/ml CDDP): 0.017 | Average absorbance, MTT 72 h ([1]; 10 μg/ml CDDP): 0.013 | Average absorbance, MTT 24 h ([1]; 100 μg/ml CDDP): 0.011 | Average absorbance, MTT 48 h ([1]; 100 μg/ml CDDP): 0.011 | Average absorbance, MTT 72 h ([1]; 100 μg/ml CDDP): 0.011 | SRB Average ([2]; HCT-116, Run 3, 24 h, 0.1 μg/ml CDDP): 2.01 | SRB Average ([2]; HCT-116, Run 3, 24 h, 1 μg/ml CDDP): 2.129 | SRB Average ([2]; HCT-116, Run 3, 24 h, 10 μg/ml CDDP): 2.05 | SRB Average ([2]; HCT-116, Run 3, 24 h, 100 μg/ml CDDP): 2.084 | SRB Average ([2]; HCT-116, Run 3, 48 h, 0.1 μg/ml CDDP): 1.933 | SRB Average ([2]; HCT-116, Run 3, 48 h, 1 μg/ml CDDP): 1.394 | SRB Average ([2]; HCT-116, Run 3, 48 h, 10 μg/ml CDDP): 1.353 | SRB Average ([2]; HCT-116, Run 3, 48 h, 100 μg/ml CDDP): 1.136 | SRB Average ([2]; HCT-116, Run 3, 72 h, 0.1 μg/ml CDDP): 2.357 | SRB Average ([2]; HCT-116, Run 3, 72 h, 1 μg/ml CDDP): 1.78 | SRB Average ([2]; HCT-116, Run 3, 72 h, 10 μg/ml CDDP): 1.876 | SRB Average ([2]; HCT-116, Run 3, 72 h, 100 μg/ml CDDP): 1.404 | Average SRB ([2]; Run 1, 24 h, 0.1 μg/ml CDDP): 1.56 | Average SRB ([2]; Run 1, 24 h, 1 μg/ml CDDP): 1.606 | Average SRB ([2]; Run 1, 24 h, 10 μg/ml CDDP): 1.527 | Average SRB ([2]; Run 1, 24 h, 100 μg/ml CDDP): 1.736 | Average SRB ([2]; Run 1, 48 h, 0.1 μg/ml CDDP): 2.278 | Average SRB ([2]; Run 1, 48 h, 1 μg/ml CDDP): 2.16 | Average SRB ([2]; Run 1, 48 h, 10 μg/ml CDDP): 2.055 | Average SRB ([2]; Run 1, 48 h, 100 μg/ml CDDP): 1.169 | Average SRB ([2]; Run 1, 72 h, 0.1 μg/ml CDDP): 2.449 | Average SRB ([2]; Run 1, 72 h, 1 μg/ml CDDP): 1.569 | Average SRB ([2]; Run 1, 72 h, 10 μg/ml CDDP): 1.67 | Average SRB ([2]; Run 1, 72 h, 100 μg/ml CDDP): 1.616 | Average SRB ([2]; Run 2, 24 h, 0.1 μg/ml CDDP): 1.357 | Average SRB ([2]; Run 2, 24 h, 1 μg/ml CDDP): 1.199 | Average SRB ([2]; Run 2, 24 h, 10 μg/ml CDDP): 1.056 | Average SRB ([2]; Run 2, 24 h, 100 μg/ml CDDP): 1.173 | Average SRB ([2]; Run 2, 48 h, 0.1 μg/ml CDDP): 2.886 | Average SRB ([2]; Run 2, 48 h, 1 μg/ml CDDP): 2.878 | Average SRB ([2]; Run 2, 48 h, 10 μg/ml CDDP): 2.746 | Average SRB ([2]; Run 2, 48 h, 100 μg/ml CDDP): 2.664 | Average SRB ([2]; Run 2, 72 h, 0.1 μg/ml CDDP): 2.909 | Average SRB ([2]; Run 2, 72 h, 1 μg/ml CDDP): 2.703 | Average SRB ([2]; Run 2, 72 h, 10 μg/ml CDDP): 2.728 | Average SRB ([2]; Run 2, 72 h, 100 μg/ml CDDP): 2.514
